According to patent US10287267B2, “Isoquinolin-3-yl carboxamides and preparation and use thereof” (Samumed, LLC, priority 2016, dated 2019):
Like-named read-outs stand apart in the source and are kept apart here.

Columns and labels:
[1] = tested on: α-smooth muscle actin (αSMA) positive LL29 cells; experiment: Inhibition of fibrotic process: αSMA in TGF-β1 treated primary human fibroblasts from IPF patients; format: cell-based; conditions: Homo sapiens, Fibroblast; for EC50: 96 h, Table 8, LL29 fibroblasts from IPF patients, TGF-β1 20 ng/mL, 4 days, dose-response 10 μM to 0.94 nM; for inhibition at 10 µM: read-out: percent value in parentheses beside EC50 >10 μM;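 on all read-outs here: controls were TGF-β1 stimulated wells with DMSO vehicle (positive) and cells given DMSO alone (negative), cultured in F12 medium with 1% fetal bovine serum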
[2] = target: recombinant DYRK1A kinase (Homo sapiens (Human), UniProt Q13627); experiment: DYRK1A kinase assay (Ser/Thr 18 peptide Z-lyte FRET); format: biochemical; conditions: 30 μM ATP, 1 h room temperature;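 further: Read-out is the coumarin to fluorescein emission ratio, referenced to unphosphorylated (0%) and phosphorylated (100%) Ser/Thr 18 peptide controls, values from dose-response curves by non-linear regression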
IL-6 = IL-6 inhibition in LPS-stimulated human peripheral blood mononuclear cells (HTRF); format: cell-based; conditions: Homo sapiens, PBMC; for inhibition at 10 µM: read-out: percent value in parentheses beside EC50 >10 μM; for EC50: Table 9, huPBMCs, LPS 50 ng/mL, 22 hours, dose-response starting from 10 μM;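 on all read-outs here: IL-6 detected by HTRF with an XL665- and Cryptate-labelled anti-IL-6 antibody pair, samples run in duplicate, EC50 obtained from a four-parameter Levenberg-Marquardt curve fit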
Method: After 22 hour incubation, a mixture of anti-IL6 XL665 and anti-IL-6 Cryptate diluted in reconstitution buffer (Catalog #62IL6PEC, Cisbio Inc., Bedford, Mass.) was added to each well. […] All samples were processed in duplicate. […] EC50 was determined using software generated by Dotmatics Limited (Windhill Bishops Stortford Herts, UK) using the Levenberg-Marquardt 4 parameter fitting procedure with finite different gradients.

recombinant GSK3β kinase = recombinant GSK3β kinase (Homo sapiens (Human), UniProt P49841); experiment: GSK3β kinase assay (Ser/Thr 09 peptide Z-lyte FRET); format: biochemical; conditions: 46 μM ATP, 1 h room temperature;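 further: kinase activity read as coumarin to fluorescein emission ratio, 11-point threefold dilutions from 10 µM to 0.0003 µM in duplicate, unphosphorylated and phosphorylated peptide as 0% and 100% controls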
[3] = tested on: Wnt pathway (Sp5-Luc reporter, TCF/LEF binding sites) in SW480 colon carcinoma cells; experiment: Screening assay for Wnt activity: Sp5-Luc reporter gene assay; format: cell-based, human; conditions: Homo sapiens; for EC50: Sp5-Luc reporter, SW480 cells, 36 to 48 hours;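 on all read-outs here: firefly luciferase luminescence read in stably transduced SW480 cells carrying the Sp5 promoter reporter with eight TCF/LEF sites, compounds given in 0.1% DMSO final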
Method: The screening assay for Wnt activity is described as follows.
Following incubation, 15 μl of BriteLite Plus luminescence reagent (Perkin Elmer) was added to each well of the 384-well assay plates. The plates were placed on an orbital shaker for 2 min and then luminescence was quantified using the Envision (Perkin Elmer) plate reader.

[4] = tested on: Tau phosphorylation at Ser396 (pSer396); experiment: Tau phosphorylation assay (pSer396 ELISA / western blot) in SH-SY5Y cells; format: cell-based, human; conditions: Homo sapiens, read-out: pSer396 Tau EC50;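 further: EC50 for reduction of Tau pSer396 in lysed cells, measured by colorimetric ELISA or chemiluminescent western blot, both using the same pSer396 antibody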
Method: Two days before treatment, cells were seeded onto 96 well plates at 5×10^4 cells/well.
Wells were visually checked for cell death or change in morphology and supernatants were tested for cytotoxicity by measurement of lactate dehydrogenase release (LDH, CytoToxOne kit, Promega) if necessary.
Cells were lysed with RIPA buffer complemented with phosphatase and protease inhibitors then lysates were spun down at 12,000 g for 10 min to remove any cellular debris. Lysates are then either directly tested for pSer396 by ELISA (Life Technology, Kit KHB7031) or loaded on NuPage Bis-Tris gels for western blot analysis. Colorimetric detection of ELISA signal is performed by Cytation3 plate reader (Biotek) and the chemiluminescence signal for HRP-linked antibodies used in western blotting is detected using a Carestream Image Station. The same pSer396 antibody is used for detection of pTau in both assays.

[5] = tested on: SW480 colon carcinoma cells; experiment: Cell viability assay (CellTiter-Glo); format: cell-based, human; conditions: Homo sapiens; for EC50: 96 h, SW480 cells, CellTiter-Glo, four days incubation; for inhibition at 10 µM: SW480, read-out: percent inhibition at 10 μM
[6] = SH-SY5Y cells, overnight (16-18 h) exposure

recombinant GSK3β kinase, sequence (P49841 whole entry): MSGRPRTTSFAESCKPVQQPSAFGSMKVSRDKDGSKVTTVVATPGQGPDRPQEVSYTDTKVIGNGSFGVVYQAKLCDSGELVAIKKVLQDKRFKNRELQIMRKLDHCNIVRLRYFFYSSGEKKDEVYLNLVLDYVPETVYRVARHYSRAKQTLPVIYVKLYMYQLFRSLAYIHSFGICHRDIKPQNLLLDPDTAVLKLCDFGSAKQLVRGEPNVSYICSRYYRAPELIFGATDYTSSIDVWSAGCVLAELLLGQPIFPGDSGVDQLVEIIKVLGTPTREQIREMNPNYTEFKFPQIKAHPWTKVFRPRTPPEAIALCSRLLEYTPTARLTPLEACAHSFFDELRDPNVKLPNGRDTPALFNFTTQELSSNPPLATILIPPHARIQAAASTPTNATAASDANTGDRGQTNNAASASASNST

Row | SMILES | EC50 [1] [µM] | EC50 [2] [µM] | inhibition at 10 µM (IL-6) [%] | EC50 (IL-6) [µM] | EC50 (recombinant GSK3β kinase) [µM] | EC50 [3] [µM] | EC50 ([4]; SH-SY5Y) [µM] | EC50 [5] [µM] | inhibition at 10 µM [5] [%] | EC50 [4, 6] [µM] | inhibition at 10 µM [1] [%] | inhibition at 10 µM ([3]; SW480, read-out: percent inhibition at 10 μM) [%]
1 | Cn1cc(-c2ccc3cnc(NC(=O)CN4C5CCC4COC5)cc3c2)cn1 [Compound 347, 2-(3-Oxa-8-azabicyclo[3.2.1]octan-8-yl)-N-(6-(1-methyl-1H-pyrazol-4-yl)isoquinolin-3-yl)acetamide] | 5.22 | 0.0104 | 4.5 | > 10 | 0.165 | 9.44 | 4.4 | > 10 | 48.5 |  |  | 
2 | Cn1cc(-c2ccc3cnc(NC(=O)C4CCN(CC5(C)COC5)CC4)cc3c2)cn1 [Compound 87, N-(6-(1-Methyl-1H-pyrazol-4-yl)isoquinolin-3-yl)-1-((3-methyloxetan-3-yl)methyl)piperidine-4-carboxamide] | 0.081 | 0.0033 |  | 2.94 | 0.032 | 1 |  | 3.16 |  | 0.414 |  | 
3 | Cn1cc(-c2ccc3cnc(NC(=O)C4CC5(C4)CN(CCF)C5)cc3c2)cn1 [Compound 326, 2-(2-Fluoroethyl)-N-(6-(1-methyl-1H-pyrazol-4-yl)isoquinolin-3-yl)-2-azaspiro[3.3]heptane-6-carboxamide] | > 10 | 0.0029 |  | 0.38 | 0.019 | 0.438 |  | 0.4 |  | 0.574 | 47.2 | 
4 | O=C(Nc1cc2cc(-c3cnc4n3CCNC4)ccc2cn1)[C@H]1CCCN1 [Compound 987, (R)—N-(6-(5,6,7,8-Tetrahydroimidazo[1,2-a]pyrazin-3-yl)isoquinolin-3-yl) pyrrolidine-2-carboxamide] | > 10 | 0.0428 | 6.5 | > 10 | 2.32 | > 10 |  | > 10 | 10.6 | > 10 | 42 | 10.7
5 | Cn1cc(-c2ccc3cnc(NC(=O)C4CC4)cc3c2)nn1 [Compound 433, N-(6-(1-Methyl-1H-1,2,3-triazol-4-yl)isoquinolin-3-yl) cyclopropanecarboxamide] | 0.052 | 0.0019 |  | 0.411 | 0.001 | 0.191 |  | 0.615 |  | 0.032 |  | 
6 | Cc1nnc(-c2ccc3cnc(NC(=O)C4CCN(CCC(F)(F)F)CC4)cc3c2)n1C [Compound 279, N-(6-(4,5-Dimethyl-4H-1,2,4-triazol-3-yl)isoquinolin-3-yl)-1-(3,3,3-trifluoropropyl)piperidine-4-carboxamide] | 1.2 | 0.0078 | 14.2 | > 10 | 0.014 | 5.65 |  | > 10 | 52.4 | 0.498 |  | 
7 | Cn1cc(-c2ccc3cnc(NC(=O)C4CCN(CC5(C(F)(F)F)CC5)CC4)cc3c2)nn1 [Compound 470, N-(6-(1-Methyl-1H-1,2,3-triazol-4-yl)isoquinolin-3-yl)-1-((1-(trifluoromethyl)cyclopropyl)methyl)piperidine-4-carboxamide] | 0.387 | 0.0027 |  | 3.55 | 0.004 | 1.18 |  | 4.19 |  | 0.095 |  | 
8 | Cn1nccc1-c1ccc2cnc(NC(=O)C3CCN(CCC(F)(F)F)CC3)cc2c1 [Compound 270, N-(6-(1-Methyl-1H-pyrazol-5-yl)isoquinolin-3-yl)-1-(3,3,3-trifluoropropyl) piperidine-4-carboxamide] | > 10 | 0.952 |  | 9.97 | 5.31 | > 10 |  | > 10 |  | > 10 | 11.4 | 
